Results reported in patent US20260262635A1, “BAR COMPOSITION HAVING ENHANCED ANTIMICROBIAL ACTIVITY” (Conopco, Inc., d/b/a UNILEVER, priority 2021, published 2026).

Tested on: S. aureus ATCC 6538
Experiment: Time-kill assay adapted from ASTM E2315-16, S. aureus
Assay type: cell-based
Conditions: S. aureus and E. coli, 30 seconds of contact
Protocol: Aqueous slurries were prepared whereby gratings from the bars made in the Samples of Table I were mixed with water to form a test solution containing 10% by weight of the initial bar component. In the second method, raw bar components, as depicted in the Samples in Table II, were mixed with water to form a test solution containing a total of 10% raw bar component to simulate an aqueous slurry of a bar composition. For each sample, aqueous slurries were mixed at 50° C. to simulate customary consumer washing conditions.
As to the microbes, E. coli ATCC 10536 and S. aureus ATCC 6538 were used in this study to represent Gram negative and Gram positive bacteria, respectively. The bacteria were stored at −80° C. Fresh isolates were cultured twice on Tryptic Soy Agar plates for 24 hours at 37° C. before each experiment.
Test solutions were prepared. In the first method and for the aqueous slurries made from the bar compositions described in Table I, a composition (typically containing up to 15% surfactant) was mixed with water to form a test solution containing 10% weight percent of the initial formulation. In the second method and for the raw ingredients combined in Table II, the same were mixed with water at levels that simulate a 10% dilution of the slurries. In each assessment, test solutions were heated and mixed at […]
The log reduction was calculated using the formula: […]

With CC(O)C(=O)O (stereo not shown) [lactic acid, Lactic acid] as the compound, how does the “antimicrobial reduction / efficacy (in words)” value read?
The value was “performed poorly against S. aureus”.
